The text below walks through data of article PMC10722540, “Red Wine Inspired Chemistry: Hemisynthesis of Procyanidin Analogs and Determination of Their Protein Precipitation Capacity, Octanol–Water Partition, and Stability in Phosphate-Buffered Saline” (Journal of Agricultural and Food Chemistry, 2023).

For data set [1], the target named is T1, bovine serum albumin (BSA) (Bos taurus, UniProt P02769).
T1 construct: purchased Sigma-Aldrich (MO, USA)
The experiment in a line: Protein precipitation capacity (PPC), turbidimetric well-plate reader assay with BSA, log-normal dose–response model. It counts as biochemical. Conditions: SE in parentheses; for ED90 (mM) / EC50: BSA 0.1 mM; for EC50: concentration giving 50% of maximal absorbance (420 nm haze), read-out: ED50 (the source's name); for slope: slope parameter of log-normal dose–response model. The protocol: (§1) PPC was measured by using the turbidimetric well-plate reader assay of Engström et al. (2019), with few modifications to the volumes of the reactants and to the number of replicates, for instance. The analyzes of the supernatants were done following Engström et al. (2022).[21] Briefly, 75 μL of BSA solution and 75 μL of the solutions of compounds 2–14 were pipetted to well plates, and the intensity of the forming haze was measured periodically at 420 nm using a well-plate reader. The PPC of the PC analogue 1 was not measured because it was not soluble in suitable solvents. The reactions were monitored for 30 min, and the highest intensities were recorded. A single background measurement was done at each concentration with all the components in the wells but the BSA. The reactions were done in triplicates (and in duplicates with PC C1), and the concentrations of the compounds 2–14 in the reaction mixtures were 0.25 0.65, 1.05, 1.45, 1.85, and 2.25 mM. The concentration of the BSA was kept constant at 0.1 mM. Therefore, the tested molar ratios to BSA were 2.5:1, 6.5:1, 10.5:1, 14.5:1, 18.5:1, and 22.5:1. After the 30 min, the supernatants and precipitates of the replicates were combined in a 1.5 mL Eppendorf tube and separated by centrifuging. The supernatants were then analyzed by UPLC–DAD using the shorter phenyl column (section 2.4) to quantify the leftover compounds 2–14 and BSA. Leftover BSA was quantified using a separately prepared linear calibration curve (1–125 μM), and the compounds 2–14 were quantified by analyzing the background solutions from the well-plate reader assay and constructing a calibration curve from these analyzes. BSA was quantified at 280 nm and compounds 2–14 at 280–320 nm. The wavelength of maximal UV absorption for compounds 2–14 could not be utilized in quantification because the diode array detector was saturated at the optimal wavelengths due to the high concentrations used in the well-plate reader assay. Therefore, off-optimal wavelengths were chosen for quantification separately for each compound 2–14 to reduce intensities and to obtain linear fits for calibration curves.
All statistical analyzed were performed with R (version 4.2.2) in the integrated development environment Rstudio (version 2022.12.0.353).[23],[24] The PPC data was fitted with a dose–response model using the package drc.[25] Various models, e.g., logit and log-normal models, were compared using the mselect function, and the best fitting model was chosen based on the Akaike’s information criterion and residual error when comparing all models, and log-likelihood was used when comparing nested models. All compounds were assumed to have the same upper and lower asymptotes; the former was estimated from the experimental data, and the latter was fixed at zero.

Data set [2] is described as follows: Stability in phosphate buffered saline. The settings on record: phosphate buffered saline, pH 7.4, PBS pH 7.4, 0.01 M phosphate, 150 μM, first-order kinetics, UV 280 nm; read-out: half-life (t1/2). It counts as physicochemical. Here is the method:
The stabilities of the compounds were measured in PBS, which was prepared from commercially available tablets that were dissolved in ultrapure water. The phosphate concentration was 0.01 M, the pH was 7.4, and the potassium and sodium chloride concentrations were 0.0027 and 0.137 M, respectively. […] The compounds were dissolved in 2 mL of the PBS solution in Eppendorf tubes, vortexed for approximately 15 min, and filtered through a 0.2 μm PTFE filter to a 2 mL UPLC vial. The solutions were analyzed with the UPLC-DAD-HESI-Orbitrap-MS instrument using the longer phenyl column (section 2.4), and repeated injections were done every 47.5 min for approximately 12 h. […] The UV chromatograms at 280 nm were integrated using the QuanBrowser module in Xcalibur software (version 4.1.31.9), and the main degradation products were identified in QualBrowser by their high-resolution mass spectra and UV spectra. With each compound, the measured areas were transformed to proportional areas by dividing all areas with the initial area in the first injection of the time series, and the data was further loge transformed and fitted with first-order linear regression curves. The regression curves were supplemented with 95% confidence intervals to visualize the uncertainty in the fitted curves. The half-lives were calculated from the slope (k) parameters of the linear regression model using the following equation: [drawing 1]

Data set [3] in a line: Octanol–water partition, shake-flask method. The data set is classed as physicochemical. Conditions: 200 μM, n-octanol/water, 2 h mixing, SE in parentheses; for logP at 2 h: read-out: log P (log10KOW). The protocol:
The shake-flask method was done using 2 mL Eppendorf tubes and three replicates. […] After mixing, aliquots of 500 μL were transferred to new Eppendorf tubes, and 500 μL of n-octanol was added that had been saturated with water. The solvent systems were mixed in a vortex mixer for 2 h, and then both the water and the n-octanol layers as well as the initial water solution were analyzed by UPLC–DAD using the shorter phenyl column (section 2.4). The chromatograms were integrated using TargetLynx software (version 4.2), and the octanol–water partition coefficient, log P, was calculated as the log10 of the ratio of area in n-octanol phase to the area in water phase. Recovery % was calculated by summing the areas in both phases and dividing the summation with the area measured from the initial water phase.

For data set [4], the target named is T1, bovine serum albumin (BSA). Kind of data set: UPLC–DAD analysis of supernatants from the PPC experiment (proportion of precipitated BSA). It counts as biochemical. The settings on record: for proportion of BSA precipitated: highest tested concentration of 2.25 mM (molar ratio to BSA 23:1). The protocol: as §1

T1 sequence (P02769 25-607): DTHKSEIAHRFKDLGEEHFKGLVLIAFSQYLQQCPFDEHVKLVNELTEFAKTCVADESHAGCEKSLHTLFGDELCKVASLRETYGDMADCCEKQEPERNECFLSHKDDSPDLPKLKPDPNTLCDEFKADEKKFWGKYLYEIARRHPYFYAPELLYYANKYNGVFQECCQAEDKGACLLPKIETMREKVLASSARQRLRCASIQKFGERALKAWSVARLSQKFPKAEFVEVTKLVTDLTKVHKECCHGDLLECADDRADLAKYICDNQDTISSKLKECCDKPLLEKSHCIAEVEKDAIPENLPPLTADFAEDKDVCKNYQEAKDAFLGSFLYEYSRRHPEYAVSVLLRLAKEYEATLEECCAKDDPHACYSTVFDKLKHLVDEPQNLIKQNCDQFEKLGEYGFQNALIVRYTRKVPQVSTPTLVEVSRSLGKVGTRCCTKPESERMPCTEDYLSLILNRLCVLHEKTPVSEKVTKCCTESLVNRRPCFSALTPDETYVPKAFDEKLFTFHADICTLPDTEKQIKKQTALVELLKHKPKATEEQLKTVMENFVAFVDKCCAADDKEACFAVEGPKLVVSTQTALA

Turning to `Oc1cc(O)c2c(c1)O[C@H](c1ccc(O)c(O)c1)[C@H](O)[C@H]2c1c(O)cc(O)c2c1O[C@H](c1ccc(O)c(O)c1)[C@H](O)[C@H]2c1c(O)cc(O)c2c1O[C@H](c1ccc(O)c(O)c1)[C@H](O)C2` [Compound 13, PC C1, reference compound], in data set [1], the “ED90 (mM)” value was 1.57 (0.06) mM, the EC50 was 770 µM and the slope was 1.79 (0.08). The half-life at 150 μM in data set [2] is 30.9 h. Further, in data set [3], the KOW is on record as 0.07 (0.00) and the logP at 2 h is -1.17. Besides, the “proportion of BSA precipitated” value in data set [4] is “almost all”.
For the compound `O=C(O[C@@H]1Cc2c(O)cc(O)cc2O[C@@H]1c1cc(O)c(O)c(O)c1)c1cc(O)c(O)c(O)c1` [Compound 14, Epigallocatechin-3-gallate, reference compound], in data set [1], the “ED90 (mM)” value is recorded as 1.76 (0.06) mM, the EC50 stood at 890 µM and the slope is on record as 1.88 (0.07). For the same compound, the half-life at 150 μM in data set [2] was 1.4 h. In data set [3], the KOW is listed as 13.58 (0.06) and the logP at 2 h stood at 1.13. Also, the “proportion of BSA precipitated” value in data set [4] is “almost all”.
`Oc1cc(O)c2c(c1)O[C@H](c1ccc(O)c(O)c1)[C@H](O)[C@H]2c1c(O)cc(O)c2c1O[C@H](c1ccc(O)c(O)c1)[C@H](O)C2` [Compound 12, PC B2, reference compound]: the half-life at 150 μM in data set [2] came to 11.6 h. Further, in data set [3], the KOW is on record as 0.13 (0.00) and the logP at 2 h was -0.87. In data set [4], the “activity based on the proportions of precipitated BSA (in words)” value was “practically inactive”.
